According to PubChem BioAssay (NCI):
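Results reflect a 48-hour exposure of cells in 96-well plates to compound at five concentrations. GI50 is the concentration that inhibits growth by half. TGI marks complete inhibition of growth.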

Columns and labels:
Experiment in all cases: NCI-60 cell line screen, 48 h
[1] = system: CAKI-1 renal
[2] = system: UO-31 renal
[3] = system: SK-MEL-2 melanoma
[4] = system: TK-10 renal
[5] = system: NCI-H460 lung
[6] = system: SN12C renal
[7] = system: SNB-75 CNS
[8] = system: NCI/ADR-RES ovarian
[9] = system: UACC-257 melanoma
[10] = system: LOX IMVI melanoma
[11] = system: SK-MEL-28 melanoma
[12] = system: CCRF-CEM leukemia
[13] = system: NCI-H522 lung
[14] = system: BT-549 breast
[15] = system: SNB-19 CNS
[16] = system: MALME-3M melanoma
[17] = system: MDA-MB-231 breast
[18] = system: IGROV1 ovarian
[19] = system: UACC-62 melanoma
[20] = system: HCT-116 colon
[21] = system: MCF7 breast
[22] = system: K-562 leukemia
[23] = system: SK-OV-3 ovarian
[24] = system: SF-539 CNS
[25] = system: A498 renal
[26] = system: HS 578T breast
[27] = system: 786-0 renal
[28] = system: T-47D breast
[29] = system: PC-3 prostate
[30] = system: NCI-H226 lung
[31] = system: A549 NSCLC
[32] = system: SF-295 CNS
[33] = system: DU-145 prostate
[34] = system: NCI-H23 lung
[35] = system: RPMI-8226 leukemia
[36] = system: KM12 colon
[37] = system: OVCAR-4 ovarian
[38] = system: U251 CNS
[39] = system: SW-620 colon
[40] = system: MOLT-4 leukemia
[41] = system: OVCAR-3 ovarian
[42] = system: HT29 colon
[43] = system: SF-268 CNS
[44] = system: HCC-2998 colon
[45] = system: COLO 205 colon
[46] = system: MDA-MB-435
[47] = system: HL-60(TB) leukemia
[48] = system: OVCAR-5 ovarian
[49] = system: OVCAR-8 ovarian
[50] = system: M14 melanoma
[51] = system: ACHN renal
[52] = system: HCT-15 colon
[53] = system: SR leukemia
[54] = system: HOP-92 NSCLC
[55] = system: RXF 393 renal
[56] = system: SK-MEL-5 melanoma
[57] = system: HOP-62 NSCLC

Q: What does the source list for `C[C@]12CC[C@@H]3c4ccc(O)cc4CC[C@H]3[C@@H]1CC[C@@H]2NS(=O)(=O)c1cccc(OC(F)(F)F)c1`?
A: GI50 [1]: 2.11 µM; TGI [1]: 5.97 µM; GI50 [2]: 1.83 µM; TGI [2]: 5.46 µM; GI50 [3]: 2.18 µM; TGI [3]: 4.39 µM; GI50 [4]: 3.45 µM; TGI [4]: 10.1 µM; GI50 [5]: 1.89 µM; TGI [5]: 3.71 µM; GI50 [6]: 1.65 µM; TGI [6]: 3.26 µM; GI50 [7]: 1.67 µM; TGI [7]: 4.32 µM; GI50 [8]: 2.59 µM; TGI [8]: 7.7 µM; GI50 [9]: 2.16 µM; TGI [9]: 6.5 µM; GI50 [10]: 1.77 µM; TGI [10]: 3.17 µM; GI50 [11]: 1.76 µM; TGI [11]: 3.23 µM; GI50 [12]: 3.16 µM; TGI [12]: 12.3 µM; GI50 [13]: 2.23 µM; TGI [13]: 5.42 µM; GI50 [14]: 1.97 µM; TGI [14]: 3.66 µM; GI50 [15]: 3.46 µM; TGI [15]: 16.1 µM; GI50 [16]: 1.99 µM; TGI [16]: 4.67 µM; GI50 [17]: 1.71 µM; TGI [17]: 3.86 µM; GI50 [18]: 3.44 µM; TGI [18]: 9.19 µM; GI50 [19]: 2.04 µM; TGI [19]: 4.7 µM; GI50 [20]: 1.84 µM; TGI [20]: 3.53 µM; GI50 [21]: 1.47 µM; TGI [21]: 3.36 µM; GI50 [22]: 3.35 µM; TGI [22]: 10.8 µM; GI50 [23]: 3.1 µM; TGI [23]: 7.68 µM; GI50 [24]: 1.69 µM; TGI [24]: 3.09 µM; GI50 [25]: 1.23 µM; TGI [25]: 2.79 µM; GI50 [26]: 2.62 µM; TGI [26]: 10.5 µM; GI50 [27]: 1.92 µM; TGI [27]: 3.93 µM; GI50 [28]: 2.14 µM; TGI [28]: 5.18 µM; GI50 [29]: 2.13 µM; TGI [29]: 8.18 µM; GI50 [30]: 1.69 µM; TGI [30]: 3.29 µM; GI50 [31]: 2.7 µM; TGI [31]: 8.24 µM; GI50 [32]: 1.58 µM; TGI [32]: 3 µM; GI50 [33]: 3.83 µM; TGI [33]: 12.1 µM; GI50 [34]: 2.08 µM; TGI [34]: 4.87 µM; GI50 [35]: 2.38 µM; TGI [35]: 6.4 µM; GI50 [36]: 2.01 µM; TGI [36]: 4.08 µM; GI50 [37]: 1.85 µM; TGI [37]: 4.69 µM; GI50 [38]: 2.54 µM; TGI [38]: 6.94 µM; GI50 [39]: 3.34 µM; TGI [39]: 12.6 µM; GI50 [40]: 2.63 µM; TGI [40]: 12.1 µM; GI50 [41]: 2.04 µM; TGI [41]: 3.99 µM; GI50 [42]: 2.14 µM; TGI [42]: 3.94 µM; GI50 [43]: 3.18 µM; TGI [43]: 13.6 µM; GI50 [44]: 3.16 µM; TGI [44]: 9.37 µM; GI50 [45]: 1.86 µM; TGI [45]: 3.3 µM; GI50 [46]: 1.64 µM; TGI [46]: 3.02 µM; GI50 [47]: 2.18 µM; TGI [47]: 7.04 µM; GI50 [48]: 1.73 µM; TGI [48]: 3.2 µM; GI50 [49]: 2.78 µM; TGI [49]: 9.06 µM; GI50 [50]: 2.2 µM; TGI [50]: 4.89 µM; GI50 [51]: 2.45 µM; TGI [51]: 6.7 µM; GI50 [52]: 1.65 µM; TGI [52]: 3.76 µM; GI50 [53]: 3.37 µM; TGI [53]: 9.92 µM; GI50 [54]: 1.44 µM; TGI [54]: 3.95 µM; GI50 [55]: 1.64 µM; TGI [55]: 3.6 µM; GI50 [56]: 1.7 µM; TGI [56]: 3.32 µM; GI50 [57]: 1.99 µM; TGI [57]: 3.59 µM
